Source: PMC11009648, “Development of an orally bioavailable mSWI/SNF ATPase degrader and acquired mechanisms of resistance in prostate cancer” (Proceedings of the National Academy of Sciences of the …, 2024)

Columns and labels:
[1] = tested on: 22Rv1-wild type (WT) cells; assay: CellTiter-Glo cell viability assay in 22Rv1 wild type cells; format: cell-based, human; settings: Homo sapiens, 22Rv1, Fig. S5F; 22Rv1 WT
Procedure: (§1) Cells were seeded onto 96-well plates in appropriate culture media and allowed to adhere overnight prior to treatment. The next day, a nine-point serial dilution of the compounds was prepared and added to the plates. After treatment, the cells were then incubated for an additional 5 d. On the last day of treatment, the CellTiter-Glo cell viability assay (Promega) was then executed in accordance with the manufacturer’s guidelines. The signal (luminescence) from each well was determined using an Infinite M1000 Pro plate reader (Tecan). Relative viability was determined by dividing the signal from each well by the average of the control condition in each experiment. Finally, the data were analyzed and plotted using GraphPad Prism.

[2] = tested on: SMARCA4, SMARCA2 and PBRM1 in 22Rv1 AUR-2 cells; assay: Immunoblot of target degradation in 22Rv1 AUR-2 cells; format: cell-based, human; settings: 4 h, AU-15330 1 µM, AU-24118 0.1 µM
Procedure: Lysates were prepared using radioimmunoprecipitation assay buffer (Thermo Fisher) with cOmpleteTM protease inhibitor cocktail tablets (Sigma-Aldrich) added. Total protein for each sample was determined using the DC Protein Assay (Bio-Rad) according to the manufacturer’s instructions. A standardized quantity of protein was resolved using NuPAGE Tris-Acetate Protein Gel (3 to 8%) (Thermo Fisher) or NuPAGE Bis-Tris Protein Gel (4 to 12%) (Thermo Fisher) and probed with primary antibodies as indicated. Following incubation with secondary antibodies conjugated with horseradish peroxidase, membranes were imaged on an Odyssey Fc Imager (LiCOR Biosciences).

22Rv1 AUR-2 cells = assay: CellTiter-Glo cell viability assay in AU-15330-resistant 22Rv1 AUR-2 cells (SMARCA4 mutation); format: cell-based, human; settings: dose-response (Fig. S4C)
Description: (§2) The rising importance of the mSWI/SNF complex as a therapeutic target and the success ([32], [33]) of developing next-generation PROTAC degraders targeting the mSWI/SNF complex prompted us to proactively study potential resistance mechanisms that cancer cells may develop in response to this class of compounds. To achieve this, we cultured 22Rv1 cells in either DMSO or a lethal dose of AU-15330 for 1 mo, refreshing the drug twice a week, until resistant cells emerged. Upon obtaining a population of resistant cells, we unbiasedly characterized the genomic and transcriptomic alterations using whole-exome sequencing and bulk RNA sequencing (RNA-seq), respectively (Fig. 3A).
as §1, with “On the last day of treatment, the CellTiter-Glo cell viability assay (Promega) was then executed in accordance with the manufacturer’s guidelines.” left out

[3] = tested on: mutant forms of SMARCA4 in HEK293 cells; assay: Immunoblot of overexpressed flag-tagged mutant SMARCA4 in HEK293 cells; format: cell-based, human; settings: 24 h treatment
Description: GFP-SMARCA4 (Addgene, 65391) was used for the SMARCA4 mutation clone. The pLVX-TetOne-Puro-hAXL (Addgene, 124797) backbone was used as a starting point prior to undergoing a series of modifications. The endogenous target gene was removed, and a multiple cloning site (MCS) was inserted downstream of the endogenous promoter. Custom gblocks containing Flag-tagged WT SMARCA4 were synthesized (Integrated DNA Technologies, IDT) and inserted into the MCS. Subsequently, custom gblocks containing SMARCA4-N1540S, SMARCA4-I1551del, or SMARCA4-F1485S were inserted to replace the respective portion of WT SMARCA4. Finally, the TRE3G promoter was replaced with hPGK.
HEK293 cells were seeded overnight and transfected with Lipofectamine 3,000 (Thermo Fisher) according to the manufacturer’s protocol. Media were changed 8 h post transfection and incubated for 48 h prior to conducting further analyses.

[4] = Toxicity and maximum tolerated dose in tumor-free CB17 SCID mice; format: in vivo
Procedure: To evaluate the preclinical safety of AU-24118, we conducted extensive toxicity analyses with AU-24118 in mice. First, to establish the maximum tolerated dose, we implemented a dosage escalation experiment in CB17 SCID (severe combined immunodeficiency) tumor-free mice.
We further characterized the host organ (spleen, kidney, and liver) morphology and function upon AU-24118 treatment at the maximum tolerated dose (15 mg/kg) in CB17 SCID mice. […] Additionally, we evaluated liver and kidney function using a blood panel on a separate cohort of CB17 SCID mice that underwent 25 d treatment with AU-24118 at the maximum tolerated dose.
Organs (liver, spleen, and kidney) were harvested from mice and fixed in neutral buffered formalin (10%) and subsequently embedded in paraffin to generate tissue blocks. These blocks were then sectioned at a thickness of 4 µm and stained using Harris hematoxylin (Leica Surgipath) and alcoholic eosin-Y stain (Leica Surgipath). Staining was executed using the automated Leica autostainer-XL platform. Upon staining, the sections were subsequently analyzed by two pathologists on a brightfield microscope to determine morphology and architectural coherence. These pathological assessments were performed in a blinded manner. Detailed and comprehensive analysis of cellular and -subcellular level changes of organs were performed as previously described ([16]).

22Rv1 AUR-3 cells = assay: CellTiter-Glo cell viability assay in AU-15330-resistant 22Rv1 AUR-3 cells (ABCB1 overexpression); format: cell-based, human
Description: as §2, §1

[5] = tested on: proteome of VCaP cells (SMARCA2, SMARCA4, PBRM1); assay: TMT mass spectrometry proteomics of VCaP cells; format: cell-based, human
Procedure: Cells were plated at 5 × 10^6 cells per well in a 6-well plate overnight prior to treatment with DMSO, 100 nM AU-24118, or 1 μM AU-15330 for 2 h. Whole cell lysates were prepared in RIPA buffer (Thermo Fisher) supplemented with tablets of cOmpleteTM protease inhibitor cocktail (Sigma-Aldrich). For each condition, 75 µg of total protein was labeled with TMT isobaric Label Reagent (Thermo Fisher) according to the manufacturer’s protocol and subjected to 12 fractions of liquid chromatography–MS (LC–MS)/MS analysis.

With `Nc1nnc(-c2ccccc2O)cc1-c1ccc(N2CCC(N3CCC(c4ccc(OC5CCC(=O)NC5=O)cc4)CC3)CC2)cc1` (centres unmarked) [AU-24118] the IC50 [1] was 0.00942 µM, the “degradation of SMARCA2 and PBRM1, immunoblot” value [2] was “able to degrade SMARCA2 and PBRM1” and the “degradation of SMARCA4, immunoblot” value [2] was “unable to degrade SMARCA4”. The “ability to cause a decrease in cell viability” value (22Rv1 AUR-2 cells) was “unable”, the “degradation of overexpressed mutant SMARCA4, immunoblot” value [3] was “resistant to degradation” and the “H&E staining of spleen, kidney and liver” value ([4]; CB17 SCID mice, 15 mg/kg) was “no discernible toxicity in normal tissues”. For the same molecule, the “blood panel of liver and kidney function (ALT, AST, BUN, CREA)” value ([4]; CB17 SCID mice, 25 d treatment, 15 mg/kg) was “slight elevation in alanine transaminases”, the “tolerability (body weight, morbidity)” value ([4]; CB17 SCID tumor-free mice, 20 mg/kg three times weekly) was “noticeable weight loss after the first week, culminating in morbidity or fatality by the second week” and the “tolerability (body weight)” value ([4]; CB17 SCID tumor-free mice, up to 15 mg/kg three times weekly) was “well-tolerated responses”. The MTD ([4]; mouse, in vivo, oral, CB17 SCID mice, dosed three times weekly) was 15 mg/kg, the “sensitivity of AUR-3 cells versus WT” value (22Rv1 AUR-3 cells; 22Rv1 AUR-3 cells (Fig. S5 E and F)) was “dramatically less sensitive” and the IC50 (22Rv1 AUR-3 cells; Homo sapiens, 22Rv1, Fig. S5F, 22Rv1 AUR-3) was 0.458 µM. For the same molecule, the “selectivity of degradation, MS-based proteomics” value ([5]; VCaP cells, 100 nM AU-24118, 2 h) was “selectively degraded SMARCA2, SMARCA4, and PBRM1” and the “degradation of IMiD neosubstrates, proteomics” value ([5]; human cell line (VCaP)) was “not found to degrade any canonical immunomodulatory imide drug (IMiD) neosubstrates such as IKZF1, IKZF3, and GSPT1”.
